Test results as given in patent publication US20220289732A1, “HETEROCYCLIC WDR5 INHIBITORS AS ANTI-CANCER COMPOUNDS” (NOVARTIS AG, priority 2019, published 2022).
pIC50: −log10 of the molar value.

What was measured:
[1] = target: wild type MLL1 four-member complex (MLL1-4C) (Homo sapiens, UniProt P61964); experiment: MLL1 LC-MS assay (SAH production); type: biochemical; conditions: read-out: (b) MLL LCMS Peptide Val.v.1 Qualified AC50
How it was run: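 SAH formation, measured by LC-MS/MS after a TFA quench containing d4-SAH, was normalised to no-compound and no-enzyme controls and fitted to a dose-response curve for IC50. Reactions ran 120 min at rt (pH 8.0 Tris buffer) with final 30 nM MLL1 four-member complex, 2.5 μM SAM and 10 μM biotinylated H3[1-21] peptide, after a 20-min enzyme/SAM-compound preincubation.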

MV4-11 cells = experiment: MV4-11 6-day cell growth CTG (CellTiter-Glo) assay; type: cell-based; conditions: Homo sapiens, MV4-11, 144 h, 6 days, read-out: (c) MLL/WDR5 cell proliferation assay//MLL/WDR5 proliferation MV4:11 Qualified AC50
How it was run: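 IC50 comes from a dose-response fit of % inhibition relative to DMSO controls, with viable cells measured by CellTiter-Glo luminescence. Compounds were tested over 12 points (1:3, starting at 50 μM final) on MV4-11 cells plated at 300/well and grown 6 days.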

WDR5 = WDR5 (Homo sapiens, UniProt P61964); experiment: WDR5 HTRF binding assay; conditions: read-out: (a) WDR5 HTRF Pep Val v.1[Inhibitor/IC50]Qualified AC50
How it was run: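 In this HTRF displacement format, biotinylated MLL1 WIN peptide (3762-3773, 20 nM) binds WDR5 (6 nM) in 25 mM Hepes pH 7.5 with 100 mM NaCl, 2 mM DTT and 0.1% BSA for 20 min at rt. Detection used streptavidin-APC/anti-His-Eu for 1 hr. IC50 came from dose-response fits of normalized signal; 15 nM biotin-PEG-His peptide served as counter assay.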

CCOc1cc([C@H](C)N2CCc3c(cc(Cn4ccnc4C)cc3-n3nc(C)nc3C(F)F)C2=O)ncc1C#N [Example 294]
AC50 [1]: 10 to 1000 nM
AC50 (MV4-11 cells): 10 to 1000 nM
pIC50 (WDR5): 6.00 to 8.00

CCOc1cc([C@H](C)N2CCc3c(CN(C)C)cc(Cn4ccnc4C)cc3C2=O)ncc1C#N [Example 295]
AC50 [1]: 10 to 1000 nM
AC50 (MV4-11 cells): 1000 to 25000 nM
pIC50 (WDR5): 6.00 to 8.00

COc1cc([C@H](C)N2CCc3c(cc(Cn4ccnc4C)cc3-c3nn(C)c(=O)cc3C(F)(F)F)C2=O)ncc1C#N [Example 296]
AC50 [1]: 10 to 1000 nM
AC50 (MV4-11 cells): 10 to 1000 nM
pIC50 (WDR5): 6.00 to 8.00

CCOc1cc(CN2CCc3c(cc(Cn4ccnc4C)cc3-c3cn(C)c(=O)cc3C(F)(F)F)C2=O)ncc1C#N [Example 297]
AC50 [1]: 10 to 1000 nM
AC50 (MV4-11 cells): < 10 nM
pIC50 (WDR5): > 8.00

CCOc1cc(CN2CCc3c(cc(Cn4ccnc4C)cc3-n3nc(C)nc3C(F)F)C2=O)ncc1C#N [Example 298]
AC50 [1]: 10 to 1000 nM
AC50 (MV4-11 cells): 10 to 1000 nM
pIC50 (WDR5): > 8.00

CCOc1cc(CN2CCc3c(cc(Cn4ccnc4C)cc3-c3cn(C)c(=O)cc3C(F)F)C2=O)ncc1C#N [Example 299]
AC50 [1]: 10 to 1000 nM
AC50 (MV4-11 cells): 10 to 1000 nM
pIC50 (WDR5): > 8.00

CCOc1cc(C(C)N2CCc3c(cc(CCN(C)CC)cc3C(C)(O)C(F)(F)F)C2=O)ncc1C#N (stereo not drawn) [Example 304, 4-ethoxy-6-(1-(7-(2-(ethyl(methyl)amino)ethyl)-1-oxo-5-(1,1,1-trifluoro-2-hydroxypropan-2-yl)-3,4-dihydroisoquinolin-2(1H)-yl)ethyl)nicotinonitrile]
AC50 [1]: 10 to 1000 nM
AC50 (MV4-11 cells): 1000 to 25000 nM
pIC50 (WDR5): 6.00 to 8.00

CCOc1cc(CN2CCc3c(cc(CCN(C)CC)cc3C(OC)C(F)(F)F)C2=O)ncc1C#N (stereo not drawn) [Example 305, 4-ethoxy-6-((7-(2-(ethyl(methyl)amino)ethyl)-1-oxo-5-(2,2,2-trifluoro-1-methoxyethyl)-3,4-dihydroisoquinolin-2(1H)-yl)methyl)nicotinonitrile]
AC50 [1]: 10 to 1000 nM
AC50 (MV4-11 cells): 10 to 1000 nM
pIC50 (WDR5): 6.00 to 8.00

CCOc1cc(C(C)N2CCc3c(cc(CCN(C)CC)cc3C(O)C(C)(C)C)C2=O)ncc1C#N (stereo not drawn) [compound 257]
AC50 [1]: 10 to 1000 nM
AC50 (MV4-11 cells): 10 to 1000 nM
pIC50 (WDR5): 6.00 to 8.00

CCOc1cc(C(C)N2CCc3c(cc(CCN(C)CC)cc3C(O)C(F)(F)F)C2=O)ncc1F (stereo not drawn) [compound 260]
AC50 [1]: 10 to 1000 nM
AC50 (MV4-11 cells): 10 to 1000 nM
pIC50 (WDR5): 6.00 to 8.00
